According to patent publication US20210015752A1, “METHODS FOR PRODUCING PARTICLES OF AN ACTIVE INGREDIENT” (Savior Lifetec Corporation, priority 2017, published 2021):

Key:
Format in all cases: physicochemical
[1] = Emulsion test of L-ascorbic acid in various types of solvents; conditions: stirred 3 hr
Text: Two combinations of solvents gave emulsified solutions, there were tetrahydrofuran/heptanes and methanol/water

[2] = Solubility test of paliperidone palmitate in various types of solvents; conditions: ratio 1/15 (v/w), 30° C., stirred about 0.5 hour
Procedure: The solubility of paliperidone palmitate in various types of solvents was evaluated. To this purpose, paliperidone palmitate and the designated solvent were mixed in a ratio of 1/15 (v/w) at 30° C. and the mixture was stirred for about 0.5 hour.

[3] = Emulsion test of paliperidone palmitate in various types of solvents; conditions: stirred 3 hr
Procedure: Paliperidone palmitate was dissolved in DCM, THF, or toluene at 30° C. and stirred for about 0.5 hour to form a first solution, then a second solvent (as indicated in Table 2) was added and stirred for 3 hr. As the data in Table 2 indicated, among the 36 combinations (i.e., the combination of one of the 3 first solutions and one of the second solvents), only three combinations gave satisfied emulsified solutions, which comprised particles of paliperidone palmitate. The 3 combinations were THF/water, toluene/heptanes, and toluene/hexane, respectively.

SMILES: O=C1O[C@H]([C@@H](O)CO)C(O)=C1O [L-ascorbic acid]
- Emulsion test result of the first solution containing L-ascorbic acid with the second solvent ([1]; first solvent methanol, second solvent water): emulsified
- Emulsion test result of the first solution containing L-ascorbic acid with the second solvent ([1]; first solvent tetrahydrofuran, second solvent heptanes): emulsified

SMILES: CCCCCCCCCCCCCCCC(=O)OC1CCCn2c1nc(C)c(CCN1CCC(c3noc4cc(F)ccc34)CC1)c2=O (centres unmarked) [paliperidone palmitate]
- Solubility of paliperidone palmitate ([2]; solvent ACN): insoluble
- Solubility of paliperidone palmitate ([2]; solvent Acetone): insoluble
- Solubility of paliperidone palmitate ([2]; solvent DCM): soluble
- Solubility of paliperidone palmitate ([2]; solvent EtOAc): insoluble
- Solubility of paliperidone palmitate ([2]; solvent EtOH): insoluble
- Solubility of paliperidone palmitate ([2]; solvent Heptanes): insoluble
- Solubility of paliperidone palmitate ([2]; solvent Hexane): insoluble
- Solubility of paliperidone palmitate ([2]; solvent IPA): insoluble
- Solubility of paliperidone palmitate ([2]; solvent MTBE): insoluble
- Solubility of paliperidone palmitate ([2]; solvent THF): soluble
- Solubility of paliperidone palmitate ([2]; solvent Toluene): soluble
- Solubility of paliperidone palmitate ([2]; solvent Water): insoluble
- Solubility of the second solvent in the first solution containing paliperidone palmitate ([3]; first solvent DCM, second solvent ACN): miscible
- Solubility of the second solvent in the first solution containing paliperidone palmitate ([3]; first solvent DCM, second solvent Acetone): miscible
- Solubility of the second solvent in the first solution containing paliperidone palmitate ([3]; first solvent DCM, second solvent EtOAc): miscible
- Solubility of the second solvent in the first solution containing paliperidone palmitate ([3]; first solvent DCM, second solvent EtOH): miscible
- Solubility of the second solvent in the first solution containing paliperidone palmitate ([3]; first solvent DCM, second solvent Heptanes): miscible
- Solubility of the second solvent in the first solution containing paliperidone palmitate ([3]; first solvent DCM, second solvent Hexane): miscible
- Solubility of the second solvent in the first solution containing paliperidone palmitate ([3]; first solvent DCM, second solvent IPA): miscible
- Solubility of the second solvent in the first solution containing paliperidone palmitate ([3]; first solvent DCM, second solvent MTBE): miscible
- Solubility of the second solvent in the first solution containing paliperidone palmitate ([3]; first solvent DCM, second solvent THF): miscible
- Solubility of the second solvent in the first solution containing paliperidone palmitate ([3]; first solvent DCM, second solvent Toluene): miscible
- Solubility of the second solvent in the first solution containing paliperidone palmitate ([3]; first solvent DCM, second solvent Water): layered
- Solubility of the second solvent in the first solution containing paliperidone palmitate ([3]; first solvent THF, second solvent ACN): miscible
- Solubility of the second solvent in the first solution containing paliperidone palmitate ([3]; first solvent THF, second solvent Acetone): miscible
- Solubility of the second solvent in the first solution containing paliperidone palmitate ([3]; first solvent THF, second solvent DCM): miscible
- Solubility of the second solvent in the first solution containing paliperidone palmitate ([3]; first solvent THF, second solvent EtOAc): miscible
- Solubility of the second solvent in the first solution containing paliperidone palmitate ([3]; first solvent THF, second solvent EtOH): miscible
- Solubility of the second solvent in the first solution containing paliperidone palmitate ([3]; first solvent THF, second solvent Heptanes): miscible
- Solubility of the second solvent in the first solution containing paliperidone palmitate ([3]; first solvent THF, second solvent Hexane): miscible
- Solubility of the second solvent in the first solution containing paliperidone palmitate ([3]; first solvent THF, second solvent IPA): miscible
- Solubility of the second solvent in the first solution containing paliperidone palmitate ([3]; first solvent THF, second solvent MTBE): miscible
- Solubility of the second solvent in the first solution containing paliperidone palmitate ([3]; first solvent THF, second solvent Toluene): miscible
- Solubility of the second solvent in the first solution containing paliperidone palmitate ([3]; first solvent THF, second solvent Water): emulsified
- Solubility of the second solvent in the first solution containing paliperidone palmitate ([3]; first solvent Toluene, second solvent ACN): miscible
- Solubility of the second solvent in the first solution containing paliperidone palmitate ([3]; first solvent Toluene, second solvent Acetone): miscible
- Solubility of the second solvent in the first solution containing paliperidone palmitate ([3]; first solvent Toluene, second solvent DCM): miscible
- Solubility of the second solvent in the first solution containing paliperidone palmitate ([3]; first solvent Toluene, second solvent EtOAc): miscible
- Solubility of the second solvent in the first solution containing paliperidone palmitate ([3]; first solvent Toluene, second solvent EtOH): miscible
- Solubility of the second solvent in the first solution containing paliperidone palmitate ([3]; first solvent Toluene, second solvent Heptanes): emulsified
- Solubility of the second solvent in the first solution containing paliperidone palmitate ([3]; first solvent Toluene, second solvent Hexane): emulsified
- Solubility of the second solvent in the first solution containing paliperidone palmitate ([3]; first solvent Toluene, second solvent IPA): miscible
- Solubility of the second solvent in the first solution containing paliperidone palmitate ([3]; first solvent Toluene, second solvent MTBE): miscible
- Solubility of the second solvent in the first solution containing paliperidone palmitate ([3]; first solvent Toluene, second solvent THF): miscible
- Solubility of the second solvent in the first solution containing paliperidone palmitate ([3]; first solvent Toluene, second solvent Water): layered
